Columns and labels:
Wistar rats = test: Balloon dilation carotid injury in rats, morphometric and immunohistochemical analysis of arteries; assay type: in vivo
Experimental: (§1) Carotid injury was induced in Wistar rats by balloon dilation according to a conventional model (Clowes A W, Reidy M A, Clowes M M. Kinetic of cellular proliferation after arterial injury. Lab Invest 1983; 49:327-334). Rats were then injected daily i.p. with either zinc (at a concentration of 5 mg/kg) or saline (control) for 2 weeks until sacrifice. Arteries were taken for morphometeric and immunohistochemical analysis.

[1] = Levels of serum zinc in treated rats; assay type: in vivo, Wistar rats; details: zinc 5 mg/kg i.p. daily for 2 weeks; p<0.01 vs control rats
Experimental: as §1
Levels of serum zinc were elevated in the zinc-treated rats (248.2±19.4 pg/ml) as compared to the control rats (136.8±7.2 pg/ml; p<0.01).

[Zn] [zinc]
inflammatory cell infiltrate (NF-κB and iNOS positive cells) (Wistar rats; immunohistochemical staining of arteries, zinc 5 mg/kg i.p. daily for 2 weeks): a reduction was evident | external elastic lamina size (Wistar rats; zinc 5 mg/kg i.p. daily for 2 weeks after carotid balloon injury): without influencing | neointimal area (Wistar rats; zinc 5 mg/kg i.p. daily for 2 weeks after carotid balloon injury, FIG. 1): reduced | neointimal/medial ratio (Wistar rats; zinc 5 mg/kg i.p. daily for 2 weeks after carotid balloon injury, FIG. 2): reduced | Levels of serum zinc [1]: 0.2482 ± 0.0194 ng/mL
